# Experimental data reported in publication PMC12332157, “A preclinical study on the influence of linkers in [^68Ga]Ga-NOTA-X-RM26 radiotracers for PET imaging of GRPR expression” (EJNMMI Research, 2025).
# Read-outs that look alike come from different tables or passages of the source. Starred links: 1 amine or outer side, 2 acyl side, 3 side chain; linkers in the order of their positions; H or OH if unused. Non-standard residues stand in square brackets, D forms with d. Residues, ends and D or L forms follow the SMILES beside them. *: point of attachment. NOTA = O=C(O)CN1CCN(CC(=O)O)CCN(CC(=O)*)CC1; Sta = CC(C)C[C@H](N)[C@@H](O)CC(=O)O; X2 = O=C(COc1cccc(CN[*:1])c1)[*:2]; X1 = O=C(Cc1ccccc1CCN[*:1])[*:2]; X3 = O=C(COc1ccccc1CN[*:1])[*:2]
# Experiments:
# GRPR = target: T1, GRPR (Homo sapiens, UniProt P30550); assay: Competitive binding against [125I]I-Tyr4-bombesin on PC-3 cells; details: natGa-loaded peptide vs [125I]I-Tyr4-bombesin, 5 h at 4 °C
# T1 construct: endogenous in cells; host or cells: PC-3 human prostate cancer cells
# T1 sequence (P30550 whole entry): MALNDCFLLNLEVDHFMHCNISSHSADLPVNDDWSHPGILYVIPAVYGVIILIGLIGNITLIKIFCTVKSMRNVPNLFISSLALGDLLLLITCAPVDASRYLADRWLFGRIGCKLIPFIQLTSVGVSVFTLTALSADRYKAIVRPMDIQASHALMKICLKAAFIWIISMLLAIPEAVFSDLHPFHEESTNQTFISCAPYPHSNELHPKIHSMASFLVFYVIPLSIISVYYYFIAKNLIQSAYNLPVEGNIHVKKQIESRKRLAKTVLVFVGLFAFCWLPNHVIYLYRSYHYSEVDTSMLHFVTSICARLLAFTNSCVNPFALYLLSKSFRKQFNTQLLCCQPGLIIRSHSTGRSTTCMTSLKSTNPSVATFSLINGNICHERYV
# Protocol: In short, 30 nmol of the respective peptide was mixed with 10 µL of 9 mM GaCl3, 150 µL of 0.1 M HCl, and 250 µL of 1 M sodium acetate (pH 4.5). The mixture was then incubated at 70 °C for 60 min.
# PC-3 cells were seeded in 12-well plates at 10^5 cells per well density and incubated overnight. Then, the media was aspirated, and cells were washed with 500 µL of cold PBS buffer, containing 1% w/v bovine serum albumin (PBS/BSA buffer). Then the cells were treated with 350 µL of cold PBS/BSA buffer, 50 µL of the metalated ligand at different concentrations (from 0 to 1000 nM), and 100 µL of [^125I]I-Tyr^4-bombesin (PerkinElmer, Waltham, MA, USA) in PBS/1% BSA buffer, at 24.6 fmol/well concentration. Cells were incubated for 5 h at 4°C to reach equilibrium of binding. After that, the supernatant was removed, cells were washed with cold PBS buffer containing 1% BSA, and collected using 1 mL of 1 M NaOH heated to 37 °C. The radioactivity was measured by a Wizard 2480 gamma counter (PerkinElmer, Waltham, MA, USA). The experiments were performed in triplicates (n = 3) and the data were fitted to the curves with a nonlinear regression model in GraphPad Prism 7.
# [1] = system: PC-3 xenograft bearing BALB/c nu/nu mice; assay: Biodistribution in BALB/c nu/nu mice bearing PC-3 xenografts; type: in vivo; details: 2 h p.i.
# Protocol: (§1) Female BALB/c nu/nu mice of 18–22 g weight were used in the study. All procedures with animals were conducted in accordance with the EU Directive 2010/63/EU for animal experiments and Swedish national legislation concerning the protection of laboratory animals. The experiments were approved by the ethics committee for animal research in Uppsala (Sweden) with permit number 5.8.18–00473/2021. Animals were housed in individually ventilated cages, under a 12-h light/dark cycle with free access to food and water.
# (§2) For tumor inoculation, 8·10^6 PC-3 cells in 100 µL PBS were injected subcutaneously into the right hind leg of mice. Mouse weight and tumor size were measured every 2–3 days, and tumor volume was estimated by ellipsoid approximation. A predefined humane endpoint of the experiment was either a 15% weight loss or a tumor volume of 1000 mm^3, neither of which was reached.
# (§3) Four weeks after tumor cell implantation, mice were randomized and divided into 6 groups (4 animals / group): 3 of them received treatment with ^68Ga-radiolabeled peptides, while the other 3 received the same peptides in addition to 5 nmol of non-labeled NOTA-PEG2-RM26 peptide for GRPR-blocking. Peptides were injected intravenously via the tail veins at a dose of 50 pmol (700 kBq radioactivity dose).
# (§4) At 2 h post injection, mice were sacrificed by overdose of Ketamine/Xylazine anesthesia, and blood was collected by heart puncture. Then, liver, spleen, lungs, pancreas, kidneys, small intestine, stomach, tail, femur bones, tumor and muscle from the opposite legs were collected, weighed, and radioactivity was measured using a Wizard 2480 gamma counter. Data are presented as percentages of injected activity per gram of tissue (%IA/g).
# [2] = Octanol-water distribution coefficient (LogD); type: physicochemical; details: n-octanol/PBS; n = 3; mean ± sd
# Protocol: Octanol-water distribution coefficient (LogD) was determined by adding 10 pmol of radiopeptide to an Eppendorf tube containing 500 µL of phosphate-buffered saline (PBS) and 500 µL of n-octanol. Each tube was vortexed for 2 min and centrifuged at 6000 g for 5 min. Three 100 µL fractions were collected from each phase, and their radioactivity was measured.
# [3] = Complex stability of 68Ga-labeled peptides in PBS or EDTA solution in PBS (iTLC); type: physicochemical; details: n = 3, mean ± sd
# [4] = Biodistribution in BALB/c nu/nu mice bearing PC-3 xenografts; type: in vivo; details: female, BALB/c nu/nu, mouse, iv, total radioactivity
# Protocol: as §1, §2, §3, §4
structure (smiles),measurement,setting,value
"CC(=O)N[C@@H](CCCCNC(=O)CN1CCN(CC(=O)O)CCN(CC(=O)O)CC1)C(=O)NCc1ccccc1OCC(=O)N[C@H](Cc1ccccc1)C(=O)N[C@@H](CCC(N)=O)C(=O)N[C@@H](Cc1c[nH]c2ccccc12)C(=O)N[C@@H](C)C(=O)N[C@H](C(=O)NCC(=O)N[C@@H](Cc1c[nH]cn1)C(=O)N[C@@H](CC(C)C)[C@@H](O)CC(=O)N[C@@H](CC(C)C)C(N)=O)C(C)C [^natGa-NOTA-oMA-RM26, metal not drawn] (Ac-K(NOTA)[X3][dF]QWAVGH[Sta]L-NH2)",IC50,GRPR,1.3 nM
CC(=O)N[C@@H](CCCCNC(=O)CN1CCN(CC(=O)O)CCN(CC(=O)O)CC1)C(=O)NCCc1ccccc1CC(=O)N[C@H](Cc1ccccc1)C(=O)N[C@@H](CCC(N)=O)C(=O)N[C@@H](Cc1c[nH]c2ccccc12)C(=O)N[C@@H](C)C(=O)N[C@H](C(=O)NCC(=O)N[C@@H](Cc1c[nH]cn1)C(=O)N[C@@H](CC(C)C)[C@@H](O)CC(=O)N[C@@H](CC(C)C)C(N)=O)C(C)C [NOTA-oET-RM26] (Ac-K(NOTA)[X1][dF]QWAVGH[Sta]L-NH2),peptide accumulation in the liver and lungs,[1],lowest activity uptake
same,tumor-to-liver ratio,[1],best tumor-to-liver ratio
"CC(=O)N[C@@H](CCCCNC(=O)CN1CCN(CC(=O)O)CCN(CC(=O)O)CC1)C(=O)NCc1cccc(OCC(=O)N[C@H](Cc2ccccc2)C(=O)N[C@@H](CCC(N)=O)C(=O)N[C@@H](Cc2c[nH]c3ccccc23)C(=O)N[C@@H](C)C(=O)N[C@H](C(=O)NCC(=O)N[C@@H](Cc2c[nH]cn2)C(=O)N[C@@H](CC(C)C)[C@@H](O)CC(=O)N[C@@H](CC(C)C)C(N)=O)C(C)C)c1 [^natGa-NOTA-mMA-RM26, metal not drawn] (Ac-K(NOTA)[X2][dF]QWAVGH[Sta]L-NH2)",IC50,GRPR,0.27 nM
"CC(=O)N[C@@H](CCCCNC(=O)CN1CCN(CC(=O)O)CCN(CC(=O)O)CC1)C(=O)NCCc1ccccc1CC(=O)N[C@H](Cc1ccccc1)C(=O)N[C@@H](CCC(N)=O)C(=O)N[C@@H](Cc1c[nH]c2ccccc12)C(=O)N[C@@H](C)C(=O)N[C@H](C(=O)NCC(=O)N[C@@H](Cc1c[nH]cn1)C(=O)N[C@@H](CC(C)C)[C@@H](O)CC(=O)N[C@@H](CC(C)C)C(N)=O)C(C)C [[^68Ga]Ga-NOTA-oET-RM26, metal not drawn] (Ac-K(NOTA)[X1][dF]QWAVGH[Sta]L-NH2)",logD,[2],-0.97 ± 0.01
same,"remaining at 1 h, 1 µM","[3]; PBS buffer, pH 7.4, incubation at 37 °C for 1 h in PBS",95 ± 2.9%
same,Stability in PBS with EDTA,"[3]; incubation at 37 °C for 1 h in PBS with 1000-fold molar excess of EDTA, in % (unit assumed)",92.6 ± 4.7
same,tissue uptake at 2 h,"[4]; blood, 50 pmol, 2 h p.i., i.v., read-out: Radionuclide concentration, Blood",0.54 ± 0.01 %ID/g
same,tissue uptake at 2 h,"[4]; blood, Blockade (co-injection of NOTA-PEG2-RM26), 2 h, read-out: Radionuclide concentration, Blood",0.31 ± 0.04 %ID/g
same,tissue uptake at 2 h,"[4]; bone, 50 pmol, 2 h p.i., i.v., read-out: Radionuclide concentration, Bone",0.44 ± 0.04 %ID/g
same,tissue uptake at 2 h,"[4]; bone, Blockade (co-injection of NOTA-PEG2-RM26), 2 h, read-out: Radionuclide concentration, Bone",0.33 ± 0.07 %ID/g
same,tissue uptake dose at 2 h,"[4]; carcass, 50 pmol, 2 h p.i., i.v., read-out: Radionuclide quantity, Carcass",4.1 ± 1.1 %ID
same,tissue uptake dose at 2 h,"[4]; carcass, Blockade (co-injection of NOTA-PEG2-RM26), 2 h, read-out: Radionuclide quantity, Carcass",3.1 ± 1.8 %ID
same,tissue uptake dose at 2 h,"[4]; gastrointestinal tract, 50 pmol, 2 h p.i., i.v., read-out: Radionuclide quantity, Gastrointestinal tract",5.9 ± 0.5 %ID
same,tissue uptake dose at 2 h,"[4]; gastrointestinal tract, Blockade (co-injection of NOTA-PEG2-RM26), 2 h, read-out: Radionuclide quantity, Gastrointestinal tract",3.5 ± 0.7 %ID
same,tissue uptake at 2 h,"[4]; kidneys, 50 pmol, 2 h p.i., i.v., read-out: Radionuclide concentration, Kidneys",5.9 ± 0.6 %ID/g
same,tissue uptake at 2 h,"[4]; kidneys, Blockade (co-injection of NOTA-PEG2-RM26), 2 h, read-out: Radionuclide concentration, Kidneys",3.3 ± 2.3 %ID/g
same,tissue uptake at 2 h,"[4]; liver, 50 pmol, 2 h p.i., i.v., read-out: Radionuclide concentration, Liver",1.9 ± 0.2 %ID/g
same,tissue uptake at 2 h,"[4]; liver, Blockade (co-injection of NOTA-PEG2-RM26), 2 h, read-out: Radionuclide concentration, Liver",1.3 ± 0.1 %ID/g
same,tissue uptake at 2 h,"[4]; lungs, 50 pmol, 2 h p.i., i.v., read-out: Radionuclide concentration, Lungs",0.45 ± 0.27 %ID/g
same,tissue uptake at 2 h,"[4]; lungs, Blockade (co-injection of NOTA-PEG2-RM26), 2 h, read-out: Radionuclide concentration, Lungs",0.37 ± 0.02 %ID/g
same,tissue uptake at 2 h,"[4]; muscle, 50 pmol, 2 h p.i., i.v., read-out: Radionuclide concentration, Muscle",0.15 ± 0.01 %ID/g
same,tissue uptake at 2 h,"[4]; muscle, Blockade (co-injection of NOTA-PEG2-RM26), 2 h, read-out: Radionuclide concentration, Muscle",0.15 ± 0.13 %ID/g
same,tissue uptake at 2 h,"[4]; pancreas, 50 pmol, 2 h p.i., i.v., read-out: Radionuclide concentration, Pancreas",11.7 ± 2.4 %ID/g
same,tissue uptake at 2 h,"[4]; pancreas, Blockade (co-injection of NOTA-PEG2-RM26), 2 h, read-out: Radionuclide concentration, Pancreas",1.2 ± 0.2 %ID/g
same,tissue uptake at 2 h,"[4]; small intestine, 50 pmol, 2 h p.i., i.v., read-out: Radionuclide concentration, Small Intestines",2.4 ± 0.4 %ID/g
same,tissue uptake at 2 h,"[4]; small intestine, Blockade (co-injection of NOTA-PEG2-RM26), 2 h, read-out: Radionuclide concentration, Small Intestines",0.33 ± 0.24 %ID/g
same,tissue uptake at 2 h,"[4]; spleen, 50 pmol, 2 h p.i., i.v., read-out: Radionuclide concentration, Spleen",0.46 ± 0.06 %ID/g
same,tissue uptake at 2 h,"[4]; spleen, Blockade (co-injection of NOTA-PEG2-RM26), 2 h, read-out: Radionuclide concentration, Spleen",0.28 ± 0.07 %ID/g
same,tissue uptake at 2 h,"[4]; stomach, 50 pmol, 2 h p.i., i.v., read-out: Radionuclide concentration, Stomach",2.6 ± 0.6 %ID/g
same,tissue uptake at 2 h,"[4]; stomach, Blockade (co-injection of NOTA-PEG2-RM26), 2 h, read-out: Radionuclide concentration, Stomach",0.55 ± 0.19 %ID/g
same,tissue uptake dose at 2 h,"[4]; total (sum of the measured activities), 50 pmol, 2 h p.i., i.v., sum of the measured activities, read-out: Radionuclide quantity, Total",16.3 ± 1.6 %ID
same,tissue uptake dose at 2 h,"[4]; total, Blockade (co-injection of NOTA-PEG2-RM26), 2 h, read-out: Radionuclide quantity, Total",8.5 ± 3 %ID
same,tissue uptake at 2 h,"[4]; tumor (PC-3 xenograft), 50 pmol, 2 h p.i., i.v., PC-3 xenograft, read-out: Radionuclide concentration, Tumor",11.2 ± 3.4 %ID/g
same,tissue uptake at 2 h,"[4]; tumor (PC-3 xenograft), Blockade (co-injection of NOTA-PEG2-RM26), 2 h, read-out: Radionuclide concentration, Tumor",1.3 ± 0.2 %ID/g
"CC(=O)N[C@@H](CCCCNC(=O)CN1CCN(CC(=O)O)CCN(CC(=O)O)CC1)C(=O)NCCc1ccccc1CC(=O)N[C@H](Cc1ccccc1)C(=O)N[C@@H](CCC(N)=O)C(=O)N[C@@H](Cc1c[nH]c2ccccc12)C(=O)N[C@@H](C)C(=O)N[C@H](C(=O)NCC(=O)N[C@@H](Cc1c[nH]cn1)C(=O)N[C@@H](CC(C)C)[C@@H](O)CC(=O)N[C@@H](CC(C)C)C(N)=O)C(C)C [^natGa-NOTA-oET-RM26, metal not drawn] (Ac-K(NOTA)[X1][dF]QWAVGH[Sta]L-NH2)",IC50,GRPR,3.4 nM
